Test [1] deals with CD69+B220+ cells (mouse spleen cells). The test is described as follows: B cell activation assay (IgD-stimulated CD69 on B220+ spleen cells, FACS). It is filed as cell-based. As to conditions: IgD 3 μg/mL 4 h.
A further test deals with T1, BTK (Homo sapiens, UniProt Q06187).
T1 construct: purchased Reaction Biology Corporation
The test is described as follows: BTK kinase profiling, HotSpot radiometric assay (Reaction Biology). It is filed as biochemical. As to conditions: ATP 10 μM. Here is the method:
(§1) Compounds of the invention were profiled in a 10 dose IC50 panel against BTK and PI3Kδ, both provided by Reaction Biology Corporation.
BTK assay: In vitro profiling protein kinases was performed using the “HotSpot” assay platform. Briefly, specific kinase/substrate pairs along with required cofactors were prepared in reaction buffer. Compounds were prepared as 10 mM stock solutions in DMSO. Compounds were delivered into the reaction, followed 15-20 minutes later by addition of a mixture of ATP (Sigma, St. Louis Mo.) and ^33P ATP (Perkin Elmer, Waltham Mass.) to a final concentration of 10 μM. Reactions were carried out at RT for 120 min, followed by spotting of the reactions onto P81 ion exchange filter paper (Whatman Inc., Piscataway, N.J.). Unbound phosphate was removed by extensive washing of filters in 0.75% Phosphoric acid. […] ICso values and curve fits were obtained using Prism (GraphPad Software). Buffer Conditions: 20 mM Hepes (pH 7.5), 10 mM MgCl2, 1 mM EGTA, 0.02% Brij35, 0.02 mg/mL BSA, 0.1 mM Na3VO4, 2 mM DTT, 1% DMSO.

The target of test [2] is T2, PI3Kδ (Homo sapiens, UniProt O00329).
T2 construct: purchased Reaction Biology Corporation
T2 sequence (O00329 whole entry): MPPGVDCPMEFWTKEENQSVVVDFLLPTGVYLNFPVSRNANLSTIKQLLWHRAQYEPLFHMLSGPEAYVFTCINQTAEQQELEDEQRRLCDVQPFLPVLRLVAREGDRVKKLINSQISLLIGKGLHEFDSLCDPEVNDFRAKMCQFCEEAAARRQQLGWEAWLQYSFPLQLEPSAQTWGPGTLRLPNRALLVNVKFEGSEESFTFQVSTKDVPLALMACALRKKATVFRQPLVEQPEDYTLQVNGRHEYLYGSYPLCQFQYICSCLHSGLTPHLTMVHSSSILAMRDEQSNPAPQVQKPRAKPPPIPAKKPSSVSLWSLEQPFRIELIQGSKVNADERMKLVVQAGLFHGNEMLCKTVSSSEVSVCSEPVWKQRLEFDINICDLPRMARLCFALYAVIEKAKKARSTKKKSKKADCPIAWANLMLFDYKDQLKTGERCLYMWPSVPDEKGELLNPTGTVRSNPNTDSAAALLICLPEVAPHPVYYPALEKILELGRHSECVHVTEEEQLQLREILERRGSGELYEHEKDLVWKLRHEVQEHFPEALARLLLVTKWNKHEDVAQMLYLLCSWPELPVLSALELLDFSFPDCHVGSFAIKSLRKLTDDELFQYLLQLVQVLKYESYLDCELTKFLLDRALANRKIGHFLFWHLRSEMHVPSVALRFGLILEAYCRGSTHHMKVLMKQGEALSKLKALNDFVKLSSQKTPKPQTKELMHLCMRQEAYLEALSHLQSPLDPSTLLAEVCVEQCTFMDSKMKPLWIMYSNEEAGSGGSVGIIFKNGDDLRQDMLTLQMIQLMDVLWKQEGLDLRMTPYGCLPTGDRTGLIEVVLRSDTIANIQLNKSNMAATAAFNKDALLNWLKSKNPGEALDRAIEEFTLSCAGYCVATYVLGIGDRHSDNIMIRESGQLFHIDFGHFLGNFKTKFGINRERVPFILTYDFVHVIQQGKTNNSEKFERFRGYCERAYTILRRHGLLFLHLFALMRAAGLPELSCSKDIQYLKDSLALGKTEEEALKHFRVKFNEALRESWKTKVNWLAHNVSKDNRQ
T2 sequence (P27986 whole entry partner): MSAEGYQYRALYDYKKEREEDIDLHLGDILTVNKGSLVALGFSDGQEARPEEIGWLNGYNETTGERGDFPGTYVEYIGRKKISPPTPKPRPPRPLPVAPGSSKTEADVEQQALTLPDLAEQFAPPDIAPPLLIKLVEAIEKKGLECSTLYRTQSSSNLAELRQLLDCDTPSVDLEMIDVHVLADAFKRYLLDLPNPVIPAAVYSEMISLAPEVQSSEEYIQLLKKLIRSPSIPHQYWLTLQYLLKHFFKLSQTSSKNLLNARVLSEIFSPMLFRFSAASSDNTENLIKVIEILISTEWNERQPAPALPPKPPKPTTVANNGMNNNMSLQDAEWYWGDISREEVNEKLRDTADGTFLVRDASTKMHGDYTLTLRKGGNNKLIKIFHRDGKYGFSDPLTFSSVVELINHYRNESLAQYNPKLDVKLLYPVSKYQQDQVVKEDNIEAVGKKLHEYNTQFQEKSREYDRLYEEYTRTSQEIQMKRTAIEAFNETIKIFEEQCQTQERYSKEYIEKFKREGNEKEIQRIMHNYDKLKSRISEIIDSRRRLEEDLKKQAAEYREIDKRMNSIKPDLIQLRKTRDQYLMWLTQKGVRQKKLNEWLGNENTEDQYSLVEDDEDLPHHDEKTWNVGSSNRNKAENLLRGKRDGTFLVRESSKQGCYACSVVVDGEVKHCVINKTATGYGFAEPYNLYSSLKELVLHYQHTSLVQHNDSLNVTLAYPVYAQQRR
Put plainly: PI3Kδ kinase profiling, HTRF PIP3 displacement assay (Reaction Biology). It is filed as biochemical. The conditions noted are these: compound 0.1 μM; ATP 10 μM; read-out: PI3Kδ @ 0.1 μM (% Inh).

The subject of test [3] is CD69+B220+ cells (mouse spleen cells). Put plainly: B cell activation assay (IgD-stimulated CD69 on B220+ spleen cells, FACS). It is filed as cell-based. The conditions noted are these: 100 nM test compound, 30 min, then IgD 3 μg/mL 4 h, read-out: CD69 @ 100 nM (% Inh). The procedure: 1 Female mouse approximately 2 months old was euthanized with CO2 and the spleen removed. The tissue was homogenized with a polished glass microscope slide. The cells were collected in 5 mL complete medium (RPMI+10% FBS+pen/strep), placed in a 15 mL falcon tube and centrifuged at 500×g for 5 min. The supernatant was discarded and the pellet was resuspended in 3 mL of ACK lysis buffer (NH4Cl 0.17M, KHCO3 10 mM, EDTA-Na2 0.1 mM, pH 7.2), incubated at 37° C. for 5 min. 2 mL complete medium was added and the mixture centrifuged at 500×g for 5 min. The supernatant was discarded and the pellet resuspended in 1 mL complete medium. The mixture was passed through a […] cell strainer and collect in 50 mL falcon tube. Enough medium was added to have a total of 10 mL. The cells were counted and seeded in 24 or 48-well plate in 1 mL complete medium at 10^6 cells/mL. The plate was placed in a 37° C. incubator for 15 min. The cells were treated for 30 min at 37° C. with 100 nM test compound dissolved in 100% DMSO. 3 μL IgD (Accurate chemical and scientific corp.) was added at a final concentration of 3 μg/mL and the mixture incubated at 37° C. for 4 h. The cells were collected in 1.5 mL eppendorf tubes, centrifuged at 500×g for 5 min and then resuspended in 100 μL of PBS+2% FBS. The following antibodies were added: α-B220 PE (pharmingen #553090), α-CD69 APC (pharmingen #60689), live/dead fixable aqua dead cell stain kit (life technologies # L34957) all at 1:300, and the mixture incubated for 15 min at 4° C. in the dark. To this was added 900 μL of PBS+2% FBS and the mixture centrifuged at 500×g for 5 min. The supernatant was removed and the pellet resuspended in 300 μL of PBS+2% FBS and mixed well. The mixture was transferred to a cytometer tube. The samples were run in the FACS Canto II cytometer and quantified by the number of CD69+B220+ cells as a percentage of the total number of B220+ alive cells.

Test [4] deals with T2, PI3Kδ. The test is described as follows: PI3Kδ kinase profiling, HTRF PIP3 displacement assay (Reaction Biology). It is filed as biochemical. As to conditions: compound 1 μM; ATP 10 μM; read-out: PI3Kδ @ 1 μM (% Inh).
Text: as §1
PI3Kδ assay: The PIP3 product is detected by displacement of biotin-PIP3 from an energy transfer complex consisting of Europium labeled anti-GST monoclonal antibody, a GST-tagged pleckstrin homology (PH) domain, biotinylated PIP3 and Streptavidin-Allophycocyanin (APC). Excitation of Europium in the complex results in an energy transfer to the APC and a fluorescent emission at 665 nm. The PIP3 product formed by PI3-Kinase (h) activity displaces biotin-PIP3 from the complex resulting in a loss of energy transfer and thus a decrease in signal. This is a 3-step reaction: First, the kinase reaction with PIP2 substrate is carried out in the presence of ATP (10 μM), and the reaction is quenched with stop Solution, and then finally detect by adding Detection Mixture followed by incubation (10 min). Reaction procedure: 1) Prepare substrate in freshly prepared Reaction Buffer. 2) Deliver kinase into the substrate solution and gently mix. 3) Deliver compounds in 100% DMSO (1 μM) into the kinase reaction mixture by Acoustic technology (Echo550; nanoliter range), incubate for 10 min at RT. 4) Deliver ATP into the reaction mixture to initiate the reaction. 5) Incubate for 30 min at 30° C. 6) Quench the reaction with Stop Solution. 7) Add Detection Mixture, and incubate for overnight. 8) Measure HTRF: Ex=320 nm, ratio of Em=615 nm and Em=665 nm. The emission ratio is converted into μM PIP3 production based on PIP3 standard curves. The nonlinear regression to obtain the standard curve and IC50 values are performed using Graphpad Prism software. Assay Buffer: HEPES 50 mM (pH7.0), NaN3 0.02%, BSA 0.01%, Orthovanadate 0.1 mM, 1% DMSO. Detection buffer: HEPES 10 mM (pH7.0), BSA 0.02%, KF 0.16 M, EDTA 4 mM. Substrate: 10 μM PIP2 substrate (PI(4,5)P2).

T1 sequence (Q06187 whole entry): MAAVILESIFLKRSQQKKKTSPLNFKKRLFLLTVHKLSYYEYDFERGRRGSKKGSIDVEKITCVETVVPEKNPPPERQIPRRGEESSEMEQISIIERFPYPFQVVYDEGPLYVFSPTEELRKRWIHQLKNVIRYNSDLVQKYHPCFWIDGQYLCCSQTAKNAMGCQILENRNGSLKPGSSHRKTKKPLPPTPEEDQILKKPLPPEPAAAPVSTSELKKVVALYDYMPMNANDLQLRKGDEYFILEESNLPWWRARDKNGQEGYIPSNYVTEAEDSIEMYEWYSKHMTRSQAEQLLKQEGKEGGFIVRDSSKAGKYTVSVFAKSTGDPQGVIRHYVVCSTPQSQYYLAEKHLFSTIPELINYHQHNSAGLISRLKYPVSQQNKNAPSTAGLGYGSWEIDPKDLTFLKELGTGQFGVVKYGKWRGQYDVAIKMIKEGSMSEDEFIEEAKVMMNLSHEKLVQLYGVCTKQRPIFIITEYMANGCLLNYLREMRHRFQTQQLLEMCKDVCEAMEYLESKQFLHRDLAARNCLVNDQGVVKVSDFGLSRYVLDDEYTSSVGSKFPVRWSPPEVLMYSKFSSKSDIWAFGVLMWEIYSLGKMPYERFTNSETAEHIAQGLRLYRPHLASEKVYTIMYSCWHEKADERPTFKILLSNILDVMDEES

In the case of `CCC(=O)N(CCn1nc(-c2cc(O)cc(F)c2)c2c(N)ncnc21)Cc1ccccc1` [Compound 7, N-{2-[4-amino-3-(3-fluoro-5-hydroxyphenyl)-1H-pyrazolo[3,4-d]pyrimidin-1-yl]ethyl}-N-benzylpropanamide], the midpoint of inhibition in test [1], the IC50, lay at 81.9 ± 6.5 nM. Besides, the inhibition at 0.1 µM at BTK (compound 0.1 μM, read-out: BTK @ 0.1 μM (% Inh)) worked out at 19.9%; on PI3Kδ [2], 83.5%; in test [3], 66.5 ± 5.85%. In addition, the inhibition at 1 µM turned out to be 20.6% on BTK (compound 1 μM, read-out: BTK @ 1 μM (% Inh)) and 96.3% at PI3Kδ [4].

The record behind these values is patent publication US20160272645A1, “Heterocyclic Compounds and Methods of Use” (MEDIVATION TECHNOLOGIES, INC., priority 2013, published 2016).
